Consider 14 compounds from patent US20180118786A1, “NOVEL lNHIBITORS OF THE ENZYME ACTIVATED FACTOR XII (FXIIA)” (ECOLE POLYTECHNIQUE FEDERALE DE LAUSANNE (EPFL), priority 2015, published 2018).

By half-life is commonly meant the time in which the quantity being followed falls by half. High values mean slow loss, low ones fast loss. Usually IC50 stands for the point on the concentration scale where inhibition reaches its midpoint. As usually defined, the Ki is the equilibrium dissociation constant of an inhibitor or competing ligand from its target. Low readings indicate tighter binding, high ones weaker binding.

A short description of one data set: in vitro. Conditions: human, plasma.
The subject of a further data set is FXIIa. Conditions: cited from earlier work.
In data set [1] the target is T1, human β-FXIIa (Homo sapiens, UniProt P00748).
T1 construct: human β-FXIIa, a naturally occurring proteolytic product of FXIIa comprising only the catalytic domain; purchased Molecular Innovations HFXIIAB
T1 sequence (P00748 373-615 limits assumed, other chains not shown): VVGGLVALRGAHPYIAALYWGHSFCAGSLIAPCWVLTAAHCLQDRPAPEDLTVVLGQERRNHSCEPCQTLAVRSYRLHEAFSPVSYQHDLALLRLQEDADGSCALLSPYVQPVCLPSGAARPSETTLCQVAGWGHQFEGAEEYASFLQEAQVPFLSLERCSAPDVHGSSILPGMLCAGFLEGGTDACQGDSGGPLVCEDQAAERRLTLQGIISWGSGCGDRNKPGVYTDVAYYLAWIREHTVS
Description: Protease inhibition assay (Example 3). The data set is classed as biochemical. The settings on record: for improvement of Ki / binding: relative to FXII618 (1). As to the method:
The inhibitory activity of the synthesized bicyclic peptides was determined by incubation with the protease and quantification of the residual activity at various peptide concentrations using a fluorogenic substrate. A 2 mM (by weight) stock solution in H2O was made for each peptide. For the assay, serial dilutions were made from the peptide stock solution using aqueous buffer containing 10 mM TRIS, 150 mM NaCl, 10 mM MgCl (hexahydrate), 1 mM CaCl2 (dihydrate), 0.01% (v/v) Triton X-100, 0.1% (w/v) BSA and pH adjusted to 7.4. The final concentration of human 3-FXIIa (HFXIIAB; Molecular Innovations) was 1 nM or 0.5 nM. […] The final concentration of the fluorogenic substrate Boc-Q-G-R-AMC (Bachem) was 50 μM and the final DMSO content was 5%. The fluorescence was measured using an Infinite M200 Pro plate reader (Tecan) with filters 368 nm for excitation and 467 nm for emission. The measurement was performed for 60 min with a read every minute at 25° C. IC50 and Ki values were calculated using GraphPad Prism 5 software.

Data set [2] addresses T1, human β-FXIIa. Description: Protease inhibition assay (Example 2). The data set is classed as biochemical. The settings on record: for improvement of inhibitory activity / affinity: relative to parent peptide 2.
Description: The inhibitory activity of bicyclic peptides was determined by incubation with proteases and quantification of their residual activity with a fluorogenic substrate. Residual enzymatic activities were measured in buffer containing 10 mM Tris-CI, pH 7.4, 150 mM NaCl, 10 mM MgCl2, 1 mM CaCl2, 0.1% w/v BSA, 0.01% v/v Triton-X100, and 5% v/v DMSO in a volume of 150 μL. In a first series of experiments 50 μM of the fluorogenic substrate Z-Gly-Gly-Arg-AMC and 2.5 nM of enzyme (human p-FXIIa, HFXIIAB; Molecular Innovations) was used.
Dilutions of peptides were prepared ranging from 0.00001-4 μM. Fluorescence intensity was measured with an Infinite M200Pro fluorescence plate reader (excitation at 368 nm, emission at 467 nm; Tecan, Männedorf, Switzerland). The reactions were performed at 25° C., Sigmoidal curves were fitted to the data using the following dose response equation wherein x=peptide concentration, y=% activity of reaction without peptide, A1=100%, A2=0%, p=1. IC50 values were derived from the fitted curve.
Data set [3] has as its system intrinsic coagulation pathway. Description: aPTT in human plasma (Example 2). The data set is classed as biochemical. As to the method:
Coagulation times (aPTT, PT) were determined in human plasma using a blood coagulation analyzer (STart. Hemostasis coagulation analyzer, Diagnostica Stago). Extrinsic coagulation was triggered with Innovin (recombinant human tissue factor, synthetic phospholipids and calcium in stabilized HEPES buffer system; Dade Behring; Siemens). Intrinsic coagulation was triggered with Pathromtin* SL (Siemens). Pooled normal human plasma used in this study was provided by Innovative research (USA).
The ability to selectively suppress the intrinsic coagulation pathway was assessed in in vitro coagulation assays. Activated partial thromboplastin time (aPTT) and prothrombin time (PT) measure the time to coagulation upon initiation of coagulation either via the intrinsic (aPTT) or the extrinsic pathway (PT). These tests have been performed in human plasma in the presence of different concentrations of FXIIa-inhibitors. Selective FXIIa inhibition is expected to increase aPTT but not PT. […] At a concentration of 5 μM peptide inhibitor no coagulation via the intrinsic pathway occurred within 120 s. Additionally, there was a correlation between inhibitory activity against FXIIa and extent of aPTT prolongation.

Starred links: 1 amine or outer side, 2 acyl side, 3 side chain; linkers in the order of their positions; H or OH if unused. Positions of bridges follow the written chain, without caps; N, C: chain ends. Non-standard residues stand in square brackets, D forms with d. Residues, ends and D or L forms follow the SMILES beside them. TATA = O=C(CC[*:1])N1CN(C(=O)CC[*:2])CN(C(=O)CC[*:3])C1; Phe(4-F) = N[C@@H](Cc1ccc(F)cc1)C(=O)O; β3hR = N=C(N)NCCC[C@H](N)CC(=O)O

Description for in vitro: Peptide (2 μl of 2 mM in H2O) was added to 398 μl human plasma (final peptide concentration was 10 μM in 400 μl final volume). The mixture was incubated in the water bath at 37° C. At 8 different time points (0 h, 30 min, 1 h, 2 h, 4 h, 8 h, 12 h, 24 h and in some cases 48 h) a sample of 30 μl was removed, diluted to 200 μl with the same buffer used for protease inhibition assay (see above) and heat-inactivated for 20 min at 65° C. During this step proteases present in plasma are being inactivated, that would otherwise interfere with the subsequently performed enzymatic assay. […] Before analysis, plasma samples were centrifuged for 5 min at 16′000 g and the supernatant was collected. A twofold dilution series ranging from 0.0005-0.5 μM was prepared. IC50 values were derived from the fitted curve using the equation indicated above. Residual inhibition in % was calculated using the following formula: IC50, 0h/IC50, xh*100 wherein IC50, 0h is the functional strength of the inhibitor at time point 0 and IC50, xh the functional strength of inhibitor after one of the different plasma incubation period mentioned above.
The activity of the plasma proteases was heat-inactivated by incubation of the samples at 65° C. for 10 minutes.

`CC(C)C[C@@H]1NC(=O)[C@H](CCC(N)=O)NC(=O)[C@H](Cc2c[nH]cn2)NC(=O)[C@@H]2CSCCC(=O)N3CN(CN(C3)C(=O)CCSC[C@H](NC(=O)[C@@H](CO)NC(=O)[C@H](N)CCCNC(=N)N)C(=O)N[C@@H](Cc3ccc(F)cc3)C(=O)N[C@@H](CCCNC(=N)N)C(=O)N[C@@H](CC(C)C)C(=O)N3CCC[C@H]3C(=O)N2)C(=O)CCSC[C@@H](C(=O)N[C@@H](CCCNC(=N)N)C(N)=O)NC(=O)C[C@H](CCCNC(=N)N)NC1=O` [JS33] (H-[dR][dS]C[Phe(4-F)]RLPCHQL[β3hR]CR-NH2; linker 3-8-13 via TATA; N-terminus and C-terminus assumed): in “in vitro”, the half-life at 10 μM was 144 ± 30 h. Still for that read-out and setting: under `CC(C)C[C@@H]1NC(=O)[C@H](CCC(N)=O)NC(=O)[C@H](Cc2c[nH]cn2)NC(=O)[C@@H]2CSCCC(=O)N3CN(CN(C3)C(=O)CCSC[C@H](NC(=O)[C@@H](CO)NC(=O)[C@H](N)CCCNC(=N)N)C(=O)N[C@@H](Cc3ccc(F)cc3)C(=O)N[C@@H](CCCNC(=N)N)C(=O)N[C@@H](CC(C)C)C(=O)N3CCC[C@H]3C(=O)N2)C(=O)CCSC[C@@H](C(=O)N[C@@H](CCCNC(=N)N)C(N)=O)NC(=O)[C@H](CCCNC(=N)N)NC1=O` [JS34] (H-[dR][dS]C[Phe(4-F)]RLPCHQLRCR-NH2; linker 3-8-13 via TATA; N-terminus and C-terminus assumed) stands 38.7 h; under `CC(C)C[C@@H]1NC(=O)[C@H](CCC(N)=O)NC(=O)[C@H](CCCNC(=N)N)NC(=O)[C@@H]2CSCCC(=O)N3CN(CN(C3)C(=O)CCSC[C@H](NC(=O)[C@@H](CO)NC(=O)[C@H](N)CCCNC(=N)N)C(=O)N[C@@H](Cc3ccc(F)cc3)C(=O)N[C@@H](CCCNC(=N)N)C(=O)N[C@@H](CC(C)C)C(=O)N3CCC[C@H]3C(=O)N2)C(=O)CCSC[C@@H](C(=O)N[C@@H](CCCNC(=N)N)C(N)=O)NC(=O)C[C@H](CCCNC(=N)N)NC1=O` [JS35] (H-[dR][dS]C[Phe(4-F)]RLPCRQL[β3hR]CR-NH2; linker 3-8-13 via TATA; N-terminus and C-terminus assumed), 21.9 h.

On to `N=C(N)NCCCC(NC(=O)C(Cc1ccccc1)NC(=O)C1CCCN1)C(=O)CCl` [PCK, D-Pro-Phe-Arg chloromethyl ketone, reference compound], for which the IC50 in the data set with FXIIa was 180 nM. In the case of `CC(C)C[C@@H]1NC(=O)[C@H](CCC(N)=O)NC(=O)[C@H](CCCNC(=N)N)NC(=O)[C@@H]2CSCCC(=O)N3CN(CN(C3)C(=O)CCSC[C@H](NC(=O)[C@@H](N)CCCNC(=N)N)C(=O)N[C@@H](Cc3ccccc3)C(=O)N[C@@H](CCCNC(=N)N)C(=O)N[C@@H](CC(C)C)C(=O)N3CCC[C@H]3C(=O)N2)C(=O)CCSC[C@@H](C(=O)N[C@@H](CCCNC(=N)N)C(N)=O)NC(=O)C[C@H](CCCNC(=N)N)NC1=O` [compound 100], at human β-FXIIa [1], the affinity corresponds to a Ki of 5.4 ± 0.1 nM and the “improvement of Ki / binding” value amounted to 4 fold. As to `CC(C)C[C@@H]1NC(=O)[C@H](CCC(N)=O)NC(=O)[C@H](CCCNC(=N)N)NC(=O)[C@@H]2CSCCC(=O)N3CN(CN(C3)C(=O)CCSC[C@H](NC(=O)[C@@H](N)CCCNC(=N)N)C(=O)N[C@@H](Cc3ccccc3)C(=O)N[C@@H](CCCNC(=N)N)C(=O)N[C@@H](CC(C)C)C(=O)N3CCC[C@H]3C(=O)N2)C(=O)CCSCC[C@@H](C(=O)N[C@@H](CCCNC(=N)N)C(N)=O)NC(=O)C[C@H](CCCNC(=N)N)NC1=O` [compound 107], on human β-FXIIa [1], the Ki was 18 ± 2 nM. On to `CC(C)C[C@@H]1NC(=O)[C@H](CCC(N)=O)NC(=O)[C@H](CCCNC(=N)N)NC(=O)[C@@H]2CSCCC(=O)N3CN(CN(C3)C(=O)CCSC[C@H](NC(=O)[C@@H](N)CCCNC(=N)N)C(=O)N[C@@H](Cc3ccccc3)C(=O)N[C@@H](CCCCN)C(=O)N[C@@H](CC(C)C)C(=O)N3CCC[C@H]3C(=O)N2)C(=O)CCSC[C@@H](C(=O)N[C@@H](CCCNC(=N)N)C(=O)N[C@@H](Cc2c[nH]c3ccccc23)C(N)=O)NC(=O)[C@H](CCCNC(=N)N)NC1=O` [peptide 10] (H-RCFKLPCRQLRCRW-NH2; linker 2-7-12 via TATA), for which the “reduction of inhibitory activity / affinity” value at human β-FXIIa [2] (relative to parent peptide (peptide 2 or peptide 1)) is 10 fold. For `Cc1cccc(C[C@@H]2NC(=O)[C@@H](NC(=O)[C@@H](N)CCCNC(=N)N)CSCCC(=O)N3CN4CN(C3)C(=O)CCSC[C@H](NC(=O)[C@@H]3CCCN3C(=O)[C@H](CC(C)C)NC(=O)[C@H](CCCNC(=N)N)NC2=O)C(=O)N[C@@H](CCCNC(=N)N)C(=O)N[C@@H](CCC(N)=O)C(=O)N[C@@H](CC(C)C)C(=O)N[C@@H](CCCNC(=N)N)C(=O)N[C@H](C(=O)N[C@@H](CCCNC(=N)N)C(=O)N[C@@H](Cc2c[nH]c3ccccc23)C(N)=O)CSCCC4=O)c1` [peptide 52], the “improvement of inhibitory activity / affinity” value at human β-FXIIa [2] was 2.5 fold.

Consider `CC(C)C[C@@H]1NC(=O)[C@H](CCC(N)=O)NC(=O)[C@H](CCCNC(=N)N)NC(=O)[C@@H]2CSCCC(=O)N3CN(CN(C3)C(=O)CCSC[C@H](NC(=O)[C@@H](N)CCCNC(=N)N)C(=O)N[C@@H](Cc3cccnc3)C(=O)N[C@@H](CCCNC(=N)N)C(=O)N[C@@H](CC(C)C)C(=O)N3CCC[C@H]3C(=O)N2)C(=O)CCSC[C@@H](C(=O)N[C@@H](CCCNC(=N)N)C(=O)N[C@@H](Cc2c[nH]c3ccccc23)C(N)=O)NC(=O)[C@H](CCCNC(=N)N)NC1=O` [peptide 54], for which, at human β-FXIIa [2], the “improvement of inhibitory activity / affinity” value is on record as “around 3 fold”.

For the compound `CC(C)C[C@@H]1NC(=O)[C@H](CCC(N)=O)NC(=O)[C@H](CCCNC(=N)N)NC(=O)[C@@H]2CSCCC(=O)N3CN(CN(C3)C(=O)CCSC[C@H](NC(=O)[C@@H](N)CCCNC(=N)N)C(=O)N[C@@H](Cc3ccccc3F)C(=O)N[C@@H](CCCNC(=N)N)C(=O)N[C@@H](CC(C)C)C(=O)N3CCC[C@H]3C(=O)N2)C(=O)CCSC[C@@H](C(=O)N[C@@H](CCCNC(=N)N)C(=O)N[C@@H](Cc2c[nH]c3ccccc23)C(N)=O)NC(=O)[C@H](CCCNC(=N)N)NC1=O` [peptide 56], the “improvement of inhibitory activity / affinity” value at human β-FXIIa [2] came to 2 fold. `CC(C)C[C@@H]1NC(=O)[C@H](CCC(N)=O)NC(=O)[C@H](CCCNC(=N)N)NC(=O)[C@@H]2CSCCC(=O)N3CN(CN(C3)C(=O)CCSC[C@H](NC(=O)[C@@H](N)CCCNC(=N)N)C(=O)N[C@@H](Cc3ccc(F)cc3)C(=O)N[C@@H](CCCNC(=N)N)C(=O)N[C@@H](CC(C)C)C(=O)N3CCC[C@H]3C(=O)N2)C(=O)CCSC[C@@H](C(=O)N[C@@H](CCCNC(=N)N)C(N)=O)NC(=O)[C@H](CCCNC(=N)N)NC1=O` [peptide 61]: the “aPTT prolongation compared with peptide 1” value in data set [3] is “significantly increased aPTT prolongation”. Take `CC(C)C[C@@H]1NC(=O)[C@H](CCC(N)=O)NC(=O)[C@H](CCCNC(=N)N)NC(=O)[C@@H]2CSCCC(=O)N3CN(CN(C3)C(=O)CCSC[C@H](N)C(=O)N[C@@H](Cc3ccccc3)C(=O)N[C@@H](CCCNC(=N)N)C(=O)N[C@@H](CC(C)C)C(=O)N3CCC[C@H]3C(=O)N2)C(=O)CCSC[C@@H](C(=O)N[C@@H](CCCNC(=N)N)C(N)=O)NC(=O)[C@H](CCCNC(=N)N)NC1=O` [peptide 62] (H-CFRLPCRQLRCR-NH2; linker 1-6-11 via TATA): the Ki on human β-FXIIa [2] is 932 ± 80 nM. On human β-FXIIa [2], `CC(C)C[C@@H]1NC(=O)[C@H](CCC(N)=O)NC(=O)[C@H](CCCNC(=N)N)NC(=O)[C@@H]2CSCCC(=O)N3CN(CN(C3)C(=O)CCSC[C@H](NC(=O)[C@@H](N)CCNC(=N)N)C(=O)N[C@@H](Cc3ccccc3)C(=O)N[C@@H](CCCNC(=N)N)C(=O)N[C@@H](CC(C)C)C(=O)N3CCC[C@H]3C(=O)N2)C(=O)CCSC[C@@H](C(=O)N[C@@H](CCCNC(=N)N)C(N)=O)NC(=O)[C@H](CCCNC(=N)N)NC1=O` [peptide 71] came in with a Ki of 18.5 to 43.1 nM. The half-life at 10 μM in “in vitro” was 21.7 ± 2.5 h. For the compound `CC(C)C[C@@H]1NC(=O)[C@H](CCC(N)=O)NC(=O)[C@H](CCCNC(=N)N)NC(=O)[C@@H]2CSCCC(=O)N3CN(CN(C3)C(=O)CCSC[C@H](NC(=O)[C@@H](N)CCCNC(=N)N)C(=O)N[C@@H](Cc3ccccc3)C(=O)N[C@@H](CCCNC(=N)N)C(=O)N[C@@H](CC(C)C)C(=O)N3CCC[C@H]3C(=O)N2)C(=O)CCSCC[C@@H](C(=O)N[C@@H](CCCNC(=N)N)C(N)=O)NC(=O)[C@H](CCCNC(=N)N)NC1=O` [peptide 105], at human β-FXIIa [1], the “improvement of Ki / binding” value came to 1.3 fold.
